These results are taken from paper PMC2580052 (Proteins, 2008).

The experiment deals with T1, geranylgeranyl diphosphate synthase (GGPPS) (Saccharomyces cerevisiae, UniProt Q12051).
T1 sequence (Q12051 1-335): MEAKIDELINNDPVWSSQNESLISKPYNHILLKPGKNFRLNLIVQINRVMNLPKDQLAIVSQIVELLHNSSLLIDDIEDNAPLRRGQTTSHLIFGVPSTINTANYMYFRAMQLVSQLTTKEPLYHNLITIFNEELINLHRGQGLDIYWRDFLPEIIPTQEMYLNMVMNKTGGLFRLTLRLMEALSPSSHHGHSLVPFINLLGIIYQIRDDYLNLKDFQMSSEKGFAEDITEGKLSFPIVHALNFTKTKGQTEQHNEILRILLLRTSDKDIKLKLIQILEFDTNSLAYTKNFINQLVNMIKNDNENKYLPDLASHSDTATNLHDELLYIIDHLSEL
Nature of the experiment: X-ray crystal structure. The experiment is classed as binding.

Consider `CN(CCCCc1ccccc1)CCC(O)(P(=O)(O)O)P(=O)(O)O` [compound 5, N-[methyl(4-phenylbutyl)]-3-aminopropyl-1-hydroxy-1,1-bisphosphonate], for which the “X-ray crystal structure (2.08 Å, soaked crystals)” value was “We thus crystallized and determined the x-ray crystallographic structure of BPH-210 bound to GGPPS”.
